From PMC4522657, “Identification of a DYRK1A Inhibitor that Induces Degradation of the Target Kinase using Co-chaperone CDC37 fused with Luciferase nanoKAZ” (Scientific Reports, 2015)

What was measured:
Experiment in all cases: Kinase panel, CaNDY 1 µM
Type in all cases: biochemical
Settings in all cases: CaNDY 1 µM relative to DMSO
[1] = molecular target: T1, SGK (Homo sapiens, UniProt O00141)
T1 construct: purchased Carna Biosciences
Outline: (§1)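 GST-tagged (N-term) full-length human kinases, baculovirus-expressed; 1% DMSO final; 1 h, RT; mobility shift; % inhibition vs no-inhibitor control from P/(P+S).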

[2] = molecular target: T2, FES (Homo sapiens, UniProt P07332)
T2 construct: purchased Carna Biosciences
Outline: as §1

[3] = molecular target: T3, EPHB1 (Homo sapiens, UniProt P54762)
T3 construct: purchased Carna Biosciences
Outline: as §1

[4] = molecular target: T4, CDK5/p25 (Homo sapiens, UniProt Q00535)
T4 construct: purchased Carna Biosciences
Outline: as §1

[5] = molecular target: T5, PDGFRα (Homo sapiens, UniProt P16234)
T5 construct: purchased Carna Biosciences
Outline: as §1

[6] = molecular target: T6, MLK3_Cascade (Homo sapiens, UniProt Q16584)
T6 construct: purchased Carna Biosciences
Outline: as §1

[7] = molecular target: T7, HER4 (Homo sapiens, UniProt Q15303)
T7 construct: purchased Carna Biosciences
Outline: as §1

[8] = molecular target: T8, MER (Homo sapiens, UniProt Q12866)
T8 construct: purchased Carna Biosciences
Outline: as §1

[9] = molecular target: T9, CHK1 (Homo sapiens, UniProt O14757)
T9 construct: purchased Carna Biosciences
Outline: as §1

[10] = molecular target: T10, NEK7 (Homo sapiens, UniProt Q8TDX7)
T10 construct: purchased Carna Biosciences
T10 sequence (Q8TDX7 whole entry): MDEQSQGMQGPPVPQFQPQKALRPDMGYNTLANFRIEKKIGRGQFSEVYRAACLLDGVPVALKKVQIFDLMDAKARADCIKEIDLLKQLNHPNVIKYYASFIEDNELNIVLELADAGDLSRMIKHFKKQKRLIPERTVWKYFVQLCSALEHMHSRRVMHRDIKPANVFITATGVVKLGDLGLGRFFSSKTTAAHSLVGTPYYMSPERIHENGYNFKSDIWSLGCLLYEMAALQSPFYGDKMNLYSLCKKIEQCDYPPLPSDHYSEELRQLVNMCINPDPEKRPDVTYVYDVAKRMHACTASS
Outline: as §1

[11] = molecular target: T11, AKT3 (Homo sapiens, UniProt Q9Y243)
T11 construct: purchased Carna Biosciences
Outline: as §1

[12] = molecular target: T12, COT_Cascade (Homo sapiens, UniProt P41279)
T12 construct: purchased Carna Biosciences
T12 sequence (P41279 whole entry): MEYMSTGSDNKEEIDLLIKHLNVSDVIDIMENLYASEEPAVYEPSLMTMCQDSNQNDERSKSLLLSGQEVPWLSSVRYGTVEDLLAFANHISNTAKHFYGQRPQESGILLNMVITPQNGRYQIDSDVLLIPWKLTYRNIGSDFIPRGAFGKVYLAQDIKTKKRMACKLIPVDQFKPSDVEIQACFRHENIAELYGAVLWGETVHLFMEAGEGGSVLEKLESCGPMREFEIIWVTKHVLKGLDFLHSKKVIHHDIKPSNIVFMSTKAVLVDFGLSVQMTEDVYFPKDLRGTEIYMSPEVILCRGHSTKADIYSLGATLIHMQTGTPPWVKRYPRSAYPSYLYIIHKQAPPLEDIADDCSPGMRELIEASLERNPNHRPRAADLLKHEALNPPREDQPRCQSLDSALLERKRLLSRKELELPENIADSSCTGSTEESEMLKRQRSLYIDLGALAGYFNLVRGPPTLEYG
Outline: as §1

[13] = molecular target: T13, PDK1 (Homo sapiens, UniProt O15530)
T13 construct: purchased Carna Biosciences
Outline: as §1

[14] = molecular target: T14, ARG (Homo sapiens, UniProt P42684)
T14 construct: purchased Carna Biosciences
Outline: as §1

[15] = molecular target: T15, CSK (Homo sapiens, UniProt P41240)
T15 construct: purchased Carna Biosciences
Outline: as §1

[16] = molecular target: T16, IKKε (Homo sapiens, UniProt Q14164)
T16 construct: purchased Carna Biosciences
Outline: as §1

[17] = molecular target: T17, RSK2 (Homo sapiens, UniProt P51812)
T17 construct: purchased Carna Biosciences
Outline: as §1

[18] = molecular target: T18, NuaK2 (Homo sapiens, UniProt Q9H093)
T18 construct: purchased Carna Biosciences
Outline: as §1

[19] = molecular target: T19, FGFR4(V550E) (Homo sapiens, UniProt P22455, V550E)
T19 construct: purchased Carna Biosciences
Outline: as §1

[20] = molecular target: T20, AurA (Homo sapiens, UniProt O14965)
T20 construct: purchased Carna Biosciences
T20 sequence (O14965 whole entry): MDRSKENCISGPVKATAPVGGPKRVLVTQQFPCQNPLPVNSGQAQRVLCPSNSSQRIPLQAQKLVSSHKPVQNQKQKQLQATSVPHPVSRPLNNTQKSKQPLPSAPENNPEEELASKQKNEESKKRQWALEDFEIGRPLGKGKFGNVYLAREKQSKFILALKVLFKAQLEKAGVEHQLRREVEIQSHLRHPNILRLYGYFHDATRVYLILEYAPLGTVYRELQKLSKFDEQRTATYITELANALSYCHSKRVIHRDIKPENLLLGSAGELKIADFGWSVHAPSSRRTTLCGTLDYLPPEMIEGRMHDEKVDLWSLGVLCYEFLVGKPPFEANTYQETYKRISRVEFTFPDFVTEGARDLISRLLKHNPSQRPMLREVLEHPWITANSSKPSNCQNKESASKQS
Outline: as §1

[21] = molecular target: T21, ABL (Homo sapiens, UniProt P00519)
T21 construct: purchased Carna Biosciences
T21 sequence (P00519 whole entry): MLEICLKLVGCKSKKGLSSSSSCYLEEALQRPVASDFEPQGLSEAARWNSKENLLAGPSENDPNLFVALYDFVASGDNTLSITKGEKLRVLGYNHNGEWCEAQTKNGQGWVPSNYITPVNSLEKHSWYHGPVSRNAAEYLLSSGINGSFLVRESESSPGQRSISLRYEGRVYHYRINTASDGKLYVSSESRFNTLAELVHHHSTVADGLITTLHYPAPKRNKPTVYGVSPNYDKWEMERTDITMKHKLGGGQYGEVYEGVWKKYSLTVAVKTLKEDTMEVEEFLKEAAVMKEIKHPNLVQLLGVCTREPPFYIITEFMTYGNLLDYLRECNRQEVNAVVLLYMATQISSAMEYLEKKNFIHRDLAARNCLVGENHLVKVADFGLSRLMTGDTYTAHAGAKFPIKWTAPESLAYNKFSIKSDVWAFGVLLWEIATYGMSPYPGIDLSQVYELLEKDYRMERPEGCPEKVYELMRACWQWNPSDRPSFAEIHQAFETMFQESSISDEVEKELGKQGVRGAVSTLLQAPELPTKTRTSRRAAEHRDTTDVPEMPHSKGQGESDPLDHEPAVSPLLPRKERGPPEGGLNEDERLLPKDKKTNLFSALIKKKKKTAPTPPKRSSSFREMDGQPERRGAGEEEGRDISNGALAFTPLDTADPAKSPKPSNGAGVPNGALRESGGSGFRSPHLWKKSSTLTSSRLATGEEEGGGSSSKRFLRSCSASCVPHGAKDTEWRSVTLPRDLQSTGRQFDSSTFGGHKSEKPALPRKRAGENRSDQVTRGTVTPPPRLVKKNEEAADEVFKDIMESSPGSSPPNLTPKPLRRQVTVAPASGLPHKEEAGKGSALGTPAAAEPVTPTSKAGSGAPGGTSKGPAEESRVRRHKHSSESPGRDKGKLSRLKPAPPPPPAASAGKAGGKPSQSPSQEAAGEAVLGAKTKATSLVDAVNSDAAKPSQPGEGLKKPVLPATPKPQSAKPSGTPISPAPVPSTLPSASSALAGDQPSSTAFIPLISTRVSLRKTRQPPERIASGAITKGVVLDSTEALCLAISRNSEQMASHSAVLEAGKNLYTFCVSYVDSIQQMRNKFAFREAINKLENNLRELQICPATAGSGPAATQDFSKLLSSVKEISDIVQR
Outline: as §1

[22] = molecular target: T22, Erk5 (Homo sapiens, UniProt Q13164)
T22 construct: purchased Carna Biosciences
Outline: as §1

[23] = molecular target: T23, CDK3/CycE1 (Homo sapiens, UniProt Q00526)
T23 construct: purchased Carna Biosciences
Outline: as §1

[24] = molecular target: T24, CK1ε (Homo sapiens, UniProt P49674)
T24 construct: purchased Carna Biosciences
T24 sequence (P49674 whole entry): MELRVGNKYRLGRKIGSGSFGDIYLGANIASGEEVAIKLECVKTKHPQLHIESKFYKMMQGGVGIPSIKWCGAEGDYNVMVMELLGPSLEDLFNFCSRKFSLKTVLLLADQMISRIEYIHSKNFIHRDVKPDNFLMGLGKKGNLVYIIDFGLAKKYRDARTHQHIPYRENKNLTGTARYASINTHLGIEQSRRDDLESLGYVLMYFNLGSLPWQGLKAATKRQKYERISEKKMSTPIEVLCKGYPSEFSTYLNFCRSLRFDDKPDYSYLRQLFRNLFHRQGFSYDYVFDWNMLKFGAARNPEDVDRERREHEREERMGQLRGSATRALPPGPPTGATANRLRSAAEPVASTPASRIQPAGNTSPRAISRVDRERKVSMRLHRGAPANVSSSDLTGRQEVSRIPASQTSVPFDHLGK
Outline: as §1

[25] = molecular target: T25, FLT4 (Homo sapiens, UniProt P35916)
T25 construct: purchased Carna Biosciences
Outline: as §1

[26] = molecular target: T26, MAPKAPK5 (Homo sapiens, UniProt Q8IW41)
T26 construct: purchased Carna Biosciences
T26 sequence (Q8IW41 whole entry): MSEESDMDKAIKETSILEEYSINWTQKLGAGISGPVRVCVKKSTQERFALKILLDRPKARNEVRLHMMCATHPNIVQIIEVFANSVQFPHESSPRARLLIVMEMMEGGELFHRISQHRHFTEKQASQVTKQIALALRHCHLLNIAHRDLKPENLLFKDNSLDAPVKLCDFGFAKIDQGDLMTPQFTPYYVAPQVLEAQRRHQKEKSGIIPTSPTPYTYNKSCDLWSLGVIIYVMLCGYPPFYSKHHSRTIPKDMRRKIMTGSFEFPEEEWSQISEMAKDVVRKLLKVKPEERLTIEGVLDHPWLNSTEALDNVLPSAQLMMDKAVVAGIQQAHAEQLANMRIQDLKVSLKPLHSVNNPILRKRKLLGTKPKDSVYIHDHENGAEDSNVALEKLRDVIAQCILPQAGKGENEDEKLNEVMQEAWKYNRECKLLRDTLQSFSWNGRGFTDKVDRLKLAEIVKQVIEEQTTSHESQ
Outline: as §1

[27] = molecular target: T27, ALK(F1174L) (Homo sapiens, UniProt Q9UM73, F1174L)
T27 construct: purchased Carna Biosciences
Outline: as §1

[28] = molecular target: T28, ZAP70 (Homo sapiens, UniProt P43403)
T28 construct: purchased Carna Biosciences
T28 sequence (P43403 whole entry): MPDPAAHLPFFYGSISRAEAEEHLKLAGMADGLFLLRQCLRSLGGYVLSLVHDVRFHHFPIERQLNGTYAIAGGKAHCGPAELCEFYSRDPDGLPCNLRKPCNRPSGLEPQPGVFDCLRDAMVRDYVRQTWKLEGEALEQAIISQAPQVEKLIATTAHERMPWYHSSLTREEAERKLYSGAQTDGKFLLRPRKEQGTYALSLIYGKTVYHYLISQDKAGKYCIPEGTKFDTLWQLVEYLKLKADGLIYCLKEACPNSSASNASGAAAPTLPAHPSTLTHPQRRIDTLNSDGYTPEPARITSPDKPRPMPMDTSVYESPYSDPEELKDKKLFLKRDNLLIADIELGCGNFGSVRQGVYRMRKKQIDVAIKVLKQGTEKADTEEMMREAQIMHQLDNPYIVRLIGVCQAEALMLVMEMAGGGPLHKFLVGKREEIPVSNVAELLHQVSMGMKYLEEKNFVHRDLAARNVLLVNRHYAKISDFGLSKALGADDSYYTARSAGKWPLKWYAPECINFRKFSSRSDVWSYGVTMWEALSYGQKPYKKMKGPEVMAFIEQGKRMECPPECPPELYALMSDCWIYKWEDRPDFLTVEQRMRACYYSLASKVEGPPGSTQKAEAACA
Outline: as §1

[29] = molecular target: T29, EPHB3 (Homo sapiens, UniProt P54753)
T29 construct: purchased Carna Biosciences
Outline: as §1

[30] = molecular target: T30, MAP4K2 (Homo sapiens, UniProt Q12851)
T30 construct: purchased Carna Biosciences
Outline: as §1

[31] = molecular target: T31, BLK (Homo sapiens, UniProt P51451)
T31 construct: purchased Carna Biosciences
Outline: as §1

[32] = molecular target: T32, FGFR3(K650M) (Homo sapiens, UniProt P22607, K650M)
T32 construct: purchased Carna Biosciences
Outline: as §1

[33] = molecular target: T33, SIK (Homo sapiens, UniProt P57059)
T33 construct: purchased Carna Biosciences
Outline: as §1

[34] = molecular target: T34, MST4 (Homo sapiens, UniProt Q9P289)
T34 construct: purchased Carna Biosciences
T34 sequence (Q9P289 whole entry): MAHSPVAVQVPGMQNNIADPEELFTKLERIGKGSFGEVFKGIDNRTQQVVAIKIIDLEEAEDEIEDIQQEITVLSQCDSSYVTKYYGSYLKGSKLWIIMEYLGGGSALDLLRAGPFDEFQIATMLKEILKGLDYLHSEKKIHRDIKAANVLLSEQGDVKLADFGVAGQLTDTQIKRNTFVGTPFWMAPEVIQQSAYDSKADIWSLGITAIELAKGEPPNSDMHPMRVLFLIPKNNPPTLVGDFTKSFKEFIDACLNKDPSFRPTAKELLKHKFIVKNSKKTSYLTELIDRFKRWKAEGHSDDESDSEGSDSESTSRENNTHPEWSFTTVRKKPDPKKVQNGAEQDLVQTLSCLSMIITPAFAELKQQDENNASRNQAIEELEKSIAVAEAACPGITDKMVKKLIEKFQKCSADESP
Outline: as §1

[35] = molecular target: T35, BTK (Homo sapiens, UniProt Q06187)
T35 construct: purchased Carna Biosciences
Outline: as §1

[36] = molecular target: T36, ITK (Homo sapiens, UniProt Q08881)
T36 construct: purchased Carna Biosciences
Outline: as §1

T1 sequence (O00141 whole entry): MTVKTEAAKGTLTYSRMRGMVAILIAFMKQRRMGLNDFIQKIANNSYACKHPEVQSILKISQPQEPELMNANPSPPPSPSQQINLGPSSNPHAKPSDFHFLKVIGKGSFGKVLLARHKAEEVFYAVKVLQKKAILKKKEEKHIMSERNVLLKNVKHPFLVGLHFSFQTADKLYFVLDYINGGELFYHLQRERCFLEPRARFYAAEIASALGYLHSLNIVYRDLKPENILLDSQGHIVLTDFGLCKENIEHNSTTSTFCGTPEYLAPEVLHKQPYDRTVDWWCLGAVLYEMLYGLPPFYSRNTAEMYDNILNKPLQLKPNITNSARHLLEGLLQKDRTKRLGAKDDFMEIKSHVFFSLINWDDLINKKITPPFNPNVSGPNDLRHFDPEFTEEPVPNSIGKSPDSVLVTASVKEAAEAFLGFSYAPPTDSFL

[H]/N=C1/NC(=O)C(=Cc2ccc3c(c2)CCO3)S1 [CaNDY, (Z)-5-[(2,3-dihydrobenzofuran-5-yl)methylene]-2-iminothiazolidin-4-one]
remaining activity at 1 µM [1]: 93.6%
remaining activity at 1 µM [2]: 109%
remaining activity at 1 µM [3]: 95.3%
remaining activity at 1 µM [4]: 88.5%
remaining activity at 1 µM [5]: 84.1%
%Activity [6]: 100.9%
remaining activity at 1 µM [7]: 111%
remaining activity at 1 µM [8]: 102%
%Activity [9]: 93.5%
remaining activity at 1 µM [10]: 102%
remaining activity at 1 µM [11]: 104%
remaining activity at 1 µM [12]: 72.9%
remaining activity at 1 µM [13]: 107%
remaining activity at 1 µM [14]: 98.8%
%Activity [15]: 99.7%
remaining activity at 1 µM [16]: 97.6%
remaining activity at 1 µM [17]: 91.1%
%Activity [18]: 98.1%
remaining activity at 1 µM [19]: 102%
remaining activity at 1 µM [20]: 114%
remaining activity at 1 µM [21]: 103%
remaining activity at 1 µM [22]: 104%
%Activity [23]: 94.7%
remaining activity at 1 µM [24]: 89.4%
remaining activity at 1 µM [25]: 103%
remaining activity at 1 µM [26]: 95.5%
remaining activity at 1 µM [27]: 97.9%
remaining activity at 1 µM [28]: 95.7%
remaining activity at 1 µM [29]: 98.6%
remaining activity at 1 µM [30]: 76.7%
remaining activity at 1 µM [31]: 101%
remaining activity at 1 µM [32]: 101%
%Activity [33]: 99.9%
remaining activity at 1 µM [34]: 103%
%Activity [35]: 85.7%
%Activity [36]: 99.9%
